From patent publication US20230279021A1, “POLYMORPHS OF A GABAA ALPHA5 AGONIST AND METHODS OF USING IN THE TREATMENT OF COGNITIVE IMPAIRMENT” (AGENEBIO, INC., priority 2020, published 2023) come the findings set out here.

Data set [1] can be described thus: Thermal decomposition by DSC. To be noted: 10° C./min. Type of data set: physicochemical. Here is the method: DSC was performed using a Mettler-Toledo DSC3+ differential scanning calorimeter. A tau lag adjustment is performed with indium, tin, and zinc. The temperature and enthalpy are adjusted with octane, phenyl salicylate, indium, tin and zinc. The adjustment is then verified with octane, phenyl salicylate, indium, tin, and zinc. The sample was placed into a hermetically sealed aluminum DSC pan, the weight was accurately recorded, and the sample was inserted into the DSC cell. A weighed aluminum pan configured as the sample pan was placed on the reference side of the cell. The pan lid was pierced prior to sample analysis. The samples were analyzed from −25° C. to 250° C. at 10° C./min.
In general terms: In DSC, transitions show as peaks or steps in heat flow.

A short description of data set [2]: Competitive interconversion slurry experiments (relative thermodynamic stability of crystalline forms). Type of data set: physicochemical. The conditions noted are these: solvent-mediated interconversion slurries, ambient temperature (Form E also 55° C. and 77° C.). Here is the method:
Interconversion experiments were performed to identify the most thermodynamically stable anhydrous form of Compound 1 (Table 9). […] The choice of solvent affects the kinetics of polymorph conversion and not the thermodynamic relationship between polymorphic forms.
Various combinations of Forms B, E, F, and Material D were slurried with Form A at ambient and elevated temperatures (for experiments involving Form E). Different solvent systems were used and included a variety of water activities. Saturated solutions were generated and then added to the mixtures composed of approximately equivalent quantities of the forms. The mixtures were slurried for a particular duration of time and the solids harvested and analyzed by XRPD.

Data set [3] has as its system aged-impaired rats. Nature of the data set: Morris Water Maze behavioral task, acute and chronic IP treatment. The data set is classed as in vivo, Long-Evans rats. To be noted: 10 mg/kg IP, compared to vehicle control. The protocol: (§1) Aged, male Long-Evans rats were obtained at 9 months of age from Charles River Laboratories (Raleigh, N.C.) and housed in a vivarium at The Johns Hopkins University until background behavioral assessment in a water maze at 24 months of age. Young rats obtained from the same source were housed in the same vivarium and were included in the background assessment at 6 months of age but were not used for drug testing in a radial arm maze task. All rats were individually housed at 25° C. and maintained on a 12 h light/dark cycle. Food and water were provided ad libitum unless noted otherwise. The rats were examined for health and pathogen-free status throughout the experiments, as well as necropsies at the time of killing. All procedures were in accordance with NIH guidelines using protocols approved by the Institutional Animal Care and Use Committee at The Johns Hopkins University.
All rats were screened in a standardized assessment of spatial cognition before the commencement of drug studies. […]
Rats were trained and tested in a novel water maze environment to assess the effect of the treatments. […] An hour after the last training trial, rats were given a probe test in the absence of the escape platform (free swim) to assess the memory of the platform location as measured by time spent searching at the target location. […]

Data set [4] is described as follows: pKa of Compound 1 free base. The data set is classed as physicochemical.
Data set [5] concerns aged-impaired rats. Nature of the data set: Radial Arm Maze behavioral task, acute PO treatment. To be noted: 10 mg/kg PO, 5-hr retention delay, compared to vehicle control. Type of data set: in vivo, Long-Evans rats. The protocol:
as §1
All rats were screened in a standardized assessment of spatial cognition before the commencement of drug studies. The background assessment used a well-established Morris water maze protocol as described in detail elsewhere (Gallagher et al, 1993). Briefly, the rats were trained for 8 days (three trials per day) to locate a camouflaged escape platform that remained at the same location throughout training in a water maze. […]

Data set [6] is described as follows: Dynamic vapor sorption (DVS) hygroscopicity. Type of data set: physicochemical. To be noted: for hygroscopicity (DVS isotherm): 5% to 95% RH; for form of material recovered from the DVS experiment by XRPD: post DVS. The protocol: Dynamic vapor sorption data was collected on a Surface Measurement System DVS Intrinsic instrument. The samples were not dried prior to analysis. Sorption and desorption data were collected over a range from 5% to 95% RH in 10% RH increments under a nitrogen purge. The equilibrium criteria used for the analyses were 0.001 dm/dt weight change in 5 minutes with a minimum step time of 30 minutes and maximum equilibration time of 180 minutes with a 3-minute data logging interval. Data were not corrected for the initial moisture content of the sample. The samples were identified as having low, limited or significant hygroscopicity based on the definitions in the below table.

A short description of data set [7]: Solid-state stability of crystalline forms on storage or heating (XRPD). Type of data set: physicochemical. The protocol:
XRPD patterns were collected with a PANalytical X'Pert PRO MPD or a PANalytical Empyrean diffractometer using an incident beam of Cu radiation produced using an Optix long, fine-focus source. An elliptically graded multilayer mirror was used to focus Cu Kα X-rays through the specimen and onto the detector. Prior to the analysis, a silicon specimen (NIST SRM 640e) was analyzed to verify the observed position of the Si 111 peak is consistent with the NIST-certified position. A specimen of the sample was sandwiched between 3-μm-thick films and analyzed in transmission geometry. A beam-stop, short antiscatter extension, and antiscatter knife edge were used to minimize the background generated by air. Soller slits for the incident and diffracted beams were used to minimize broadening from axial divergence. Diffraction patterns were collected using a scanning position-sensitive detector (X'Celerator) located 240 mm from the specimen and Data Collector software v. 5.5. […] All images have the instrument labeled as X'Pert PRO MPD regardless of the instrument used.

Entries after “also recorded” stand apart in the source; their conditions may differ.

Regarding `COCc1nnc2n1Cc1c(C#Cc3cnc(OC)s3)ncn1-c1ccc(Cl)cc1-2` [Form B], the “DSC exotherm due to decomposition, onset” value in data set [1] is “about 190 °C”. Besides, the relative thermodynamic stability entry in data set [2] is recorded as “metastable relative to Form A”.

A word on the pKa: it is the negative logarithm of the acid dissociation constant. Regarding `COCc1nnc2n1Cc1c(C#Cc3cnc(OC)s3)ncn1-c1ccc(Cl)cc1-2` [Compound 1, 5-((3-chloro-7-(methoxymethyl)-9H-benzo[f]imidazo[1,5-a][1,2,4]triazolo[4,3-d][1,4]diazepin-10-yl)ethynyl)-2-methoxythiazole], the “time spent in target quadrant of the Morris Water Maze” value with aged-impaired rats [3] was “more time in the target quadrant”. Moreover, in data set [4], the pKa was 1.16 ± 0.04. The “number of errors in radial arm maze retention test” value in the data set on aged-impaired rats [5] is recorded as “fewer errors”.

Regarding `COCc1nnc2n1Cc1c(C#Cc3cnc(OC)s3)ncn1-c1ccc(Cl)cc1-2` [Form E], the “DSC exotherm due to decomposition, onset” value in data set [1] is ~201 °C. Besides, the relative thermodynamic stability result in data set [2] is listed as “metastable relative to Form A”.

Consider `COCc1nnc2n1Cc1c(C#Cc3cnc(OC)s3)ncn1-c1ccc(Cl)cc1-2` [Form A], for which, in data set [6], the “hygroscopicity (DVS isotherm)” value was “limited hygroscopicity; also recorded: low hygroscopicity” and the “form of material recovered from the DVS experiment by XRPD” value is reported as “same as the starting material”. Besides, in data set [6] (DVS, no hysteresis), the “weight change through the sorption/desorption cycle” value is ~0.3%. Moreover, in data set [1], the “DSC exotherm due to decomposition, onset” value is “about 207 °C”. Also, the relative thermodynamic stability result in data set [2] was “more thermodynamically stable than Form B and Material D at ambient temperature and more thermodynamically stable than Form E at ambient temperature, 55° C., and 77 °C”.

In the case of `COCc1nnc2n1Cc1c(C#Cc3cnc(OC)s3)ncn1-c1ccc(Cl)cc1-2` [Form C], in data set [7] (9 weeks under ambient conditions), the “stability under ambient conditions” value is on record as “unchanged”. Further, in data set [7] (overnight exposure to 80° C.), the “stability upon overnight exposure to 80° C.” value was “desolvate to Form B”. Further, the “DSC exotherm due to decomposition, onset” value in data set [1] came out at 190 °C.

For the molecule `COCc1nnc2n1Cc1c(C#Cc3cnc(OC)s3)ncn1-c1ccc(Cl)cc1-2` [Material D], the “stability on ambient storage (XRPD)” value in data set [7] (7 weeks of ambient storage, mixture with Form A) is “still remained”. In addition, the “DSC exotherm due to decomposition, onset” value in data set [1] was ~174 °C. The relative thermodynamic stability result in data set [2] is on record as “metastable relative to Form A”.

As to `COCc1nnc2n1Cc1c(C#Cc3cnc(OC)s3)ncn1-c1ccc(Cl)cc1-2` [Form F], the stability under vacuum result in data set [7] (5 days under vacuum at ambient temperature) is given as “unchanged”. Moreover, in data set [7] (exposure to 100° C. (several minutes, XRPD)), the “stability upon exposure to 100° C.” value was “dehydrate; also recorded: loss of crystallinity”. Further, in data set [6], the “hygroscopicity (DVS isotherm)” value is recorded as “limited hygroscopicity” and the “form of material recovered from the DVS experiment by XRPD” value was “still Form F”. The same molecule registered a weight gain in data set [6] (DVS, from 5-95% RH) of 1.8%. For the same molecule, in data set [6] (DVS, significant hysteresis), the “weight loss upon desorption” value came out at 1.5%. For the same molecule, the “DSC exotherms following dehydration endotherm (decomposition upon dehydration)” value in data set [1] is “above 120 °C”.
